Where no end group is shown, it is not given here.
Legend:
[1] = system: mégacaryocytopoièse humaine; conditions: cited from earlier work
cellules HEL = conditions: prior-art comparators; cited from earlier work
CAM de poulet = conditions: inhibition of angiogenesis in chicken CAM; cited from earlier work
[2] = system: mégacaryocytopoïèse in vivo; experiment: Megakaryocytopoiesis in vivo in normal mice (marrow and blood counts); conditions: souris Balb/c, 40 µg/kg s.c. twice daily for 4 days, sampled day 2 after last injection; mean ± SEM
Procedure: L'effet du dodécapeptide de l'exemple 1 sur la mégacaryocytopoïèse in vivo a été testé sur des souris normales selon une méthode décrite par HAN et al., dans l'article C.R. Acad. Sci. Paris, (1991), 313, Série III, 553-558 précité. Chaque groupe contient 5-10 souris Balb/c. Le peptide est injecté par voie sous-cutanée deux fois par jour pendant 4 jours aux concentrations de 1 µg et 5 µg par souris pour chaque administration. Les échantillons de moëlle et/ou de sang ont été prélevés au jour J2 qui suit la dernière injection.
Les souris ont été tuées par dislocation cervicale. Les cellules médullaires ont été obtenues à partir des fémurs et le sang a été obtenu par ponction cardiaque. Les cellules médullaires à la concentration de 2 x 10^5 cellules mononucléées par ml ont été remises en culture en cinq exemplaires en présence de sérum de porc aplasique pendant une semaine pour tester le nombre de progéniteurs mégacaryocytaires (CFU-MK). Le nombre des mégacaryocytes a été évalué sur des cellules médullaires non cultivées mais ensemencées dans des boîtes de culture après obtention à partir des fémurs. Le nombre de plaquettes, de globules blancs et le taux d'hémoglobine ont été mesurés en utilisant un compteur hématopoiétique automatique. […]

C-24: peptide constitué par les 24 derniers aminoacides (i.e. 47-70) de l'extrémité C-terminale du pF4 (NGRKICLDLQAPLYKKIIKKLLES; Platelet factor 4; UniProt P02776 78-101, looked up, fragment)
dose inhibiting mégacaryocytopoièse humaine in vitro ([1]; relatively high dose): ~25 µg/mL | maturation des cellules HEL (cellules HEL): limitent la maturation | prolifération des cellules HEL (cellules HEL): n'agissent pas sur leur prolifération

C-41: peptide constitué par les 41 derniers aminoacides (i.e. 30-70) de l'extrémité C-terminale du pF4 (IKAGPHCPTAQLIATLKNGRKICLDLQAPLYKKIIKKLLES; Platelet factor 4; UniProt P02776 61-101, looked up, fragment)
anti-angiogénèse (CAM de poulet): propriétés anti-angiogénèse

C-13: peptide constitué par les 13 derniers aminoacides (i.e. 58-70) de l'extrémité C-terminale du pF4 (PLYKKIIKKLLES; Platelet factor 4; UniProt P02776 89-101, looked up, fragment)
effet sur la mégacaryocytopoïèse ([1]; in vitro): aucun effet | anti-angiogénèse (CAM de poulet): propriétés anti-angiogénèse

NGRKICLDLEAP [exemple 1]
Sang H (hémoglobine) [2]: 15,2±0,8 g/100 ml | Sang L (leucocytes) [2]: 2,80±0,4 10^3/µl

From patent EP0642531B1, “MONOMER AND DIMER PEPTIDES, UTILIZATION AS CYTOPROTECTOR AGENTS AND PREPARATION METHOD” (INSTITUT DES VAISSEAUX ET DU SANG, priority 1992, dated 1997)
